Measurements from ChEMBL document CHEMBL1139922, “Discovery and structure-activity relationship studies of indole derivatives as liver X receptor (LXR) agonists” (Bioorg Med Chem Lett, 2007).

test system: THP-1; assay: Induction of cholesterol efflux in THP1 cells after 18 hrs; type: functional, cell-based; conditions: Homo sapiens, THP-1, 18 h

| EC50 | SMILES |
| --- | --- |
| 33 nM | O=S(=O)(c1ccccc1)N(CC(F)(F)F)c1ccc(C(O)(C(F)(F)F)C(F)(F)F)cc1 [T091317] |

biological target: T1, Oxysterols receptor LXR-beta (Homo sapiens, UniProt P55055); assay: Agonist activity at LXRbeta LBD by HTRF cofactor peptide recruitment assay; type: functional; conditions: not given
T1 sequence (P55055 whole entry): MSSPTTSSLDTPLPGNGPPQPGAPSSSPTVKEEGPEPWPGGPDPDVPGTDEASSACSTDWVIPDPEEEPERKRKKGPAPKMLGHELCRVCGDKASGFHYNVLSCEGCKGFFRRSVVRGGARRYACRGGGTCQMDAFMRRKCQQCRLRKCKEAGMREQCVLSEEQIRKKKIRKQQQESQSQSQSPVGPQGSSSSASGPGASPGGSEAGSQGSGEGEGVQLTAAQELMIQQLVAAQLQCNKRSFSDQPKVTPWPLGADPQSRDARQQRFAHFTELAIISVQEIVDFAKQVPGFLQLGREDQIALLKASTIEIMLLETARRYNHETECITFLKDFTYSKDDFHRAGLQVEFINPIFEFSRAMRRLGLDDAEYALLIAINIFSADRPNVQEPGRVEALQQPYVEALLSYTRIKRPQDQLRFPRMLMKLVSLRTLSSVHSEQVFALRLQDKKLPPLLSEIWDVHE

| EC50 | SMILES |
| --- | --- |
| > 30000 nM | CC(C)(C)OC(=O)n1c(-c2ccc3c(c2)CC(NS(=O)(=O)c2ccccc2)C3)cc2cc(O)ccc21 (stereo not drawn) |
| 1500 nM | CC(C)(C)OC(=O)n1c(-c2ccc3c(c2)CC(NS(=O)(=O)c2ccccc2)C3)cc2cc(F)ccc21 (stereo not drawn) |
| 18000 nM | Cc1ccc2c(c1)cc(-c1ccc3c(c1)CC(NS(=O)(=O)c1ccccc1)C3)n2C(=O)OC(C)(C)C (stereo not drawn) |
| 670 nM | CC(C)(C)OC(=O)n1c(-c2ccc3c(c2)CC(NS(=O)(=O)c2ccccc2)C3)cc2ccc(O)cc21 (stereo not drawn) |
| 660 nM | CC(C)(C)OC(=O)n1c(-c2ccc3c(c2)C[C@H](NS(=O)(=O)c2ccccc2)C3)cc2ccccc21 |
| 130 nM | CC(C)(C)OC(=O)n1c(-c2ccc3c(c2)C[C@@H](NS(=O)(=O)c2ccccc2)C3)cc2ccccc21 |
| > 30000 nM | O=S(=O)(NC1Cc2ccc(-c3cc4ccccc4[nH]3)cc2C1)c1ccccc1 (stereo not drawn) |
| 1600 nM | CCOC(=O)n1c(-c2ccc3c(c2)CC(NS(=O)(=O)c2ccccc2)C3)cc2ccccc21 (stereo not drawn) |
| 1300 nM | CC(C)CCOC(=O)n1c(-c2ccc3c(c2)CC(NS(=O)(=O)c2ccccc2)C3)cc2ccccc21 (stereo not drawn) |
| > 30000 nM | CCCCC(C)COC(=O)n1c(-c2ccc3c(c2)CC(NS(=O)(=O)c2ccccc2)C3)cc2ccccc21 (stereo not drawn) |
| > 30000 nM | O=S(=O)(NC1Cc2ccc(-c3cc4ccccc4n3S(=O)(=O)c3ccccc3)cc2C1)c1ccccc1 (stereo not drawn) |
| 900 nM | O=C(C1CCCC1)n1c(-c2ccc3c(c2)CC(NS(=O)(=O)c2ccccc2)C3)cc2ccccc21 (stereo not drawn) |
| > 30000 nM | CC(C)(C)CC(=O)n1c(-c2ccc3c(c2)CC(NS(=O)(=O)c2ccccc2)C3)cc2ccccc21 (stereo not drawn) |
| > 30000 nM | Cn1c(-c2ccc3c(c2)CC(NS(=O)(=O)c2ccccc2)C3)cc2ccccc21 (stereo not drawn) |
| > 30000 nM | CC(C)(C)OC(=O)Cn1c(-c2ccc3c(c2)CC(NS(=O)(=O)c2ccccc2)C3)cc2ccccc21 (stereo not drawn) |
| > 30000 nM | O=S(=O)(NC1Cc2ccc(-c3cc4ccccc4n3CCCOCc3ccccc3)cc2C1)c1ccccc1 (stereo not drawn) |
| > 10000 nM | O=S(=O)(NC1Cc2ccc(-c3cc4ccccc4n3CCc3ccccc3)cc2C1)c1ccccc1 (stereo not drawn) |
| 2100 nM | CC(C)(C)OC(=O)n1c(-c2ccc3c(c2)CC(NS(=O)(=O)c2ccc(-c4ccccc4)cc2)C3)cc2ccccc21 (stereo not drawn) |
| 1160 nM | CC(C)(C)OC(=O)n1c(-c2ccc3c(c2)CC(NS(=O)(=O)c2ccc(Cl)cc2)C3)cc2ccccc21 (stereo not drawn) |

| EC50 | SMILES |
| --- | --- |
| 430 nM | Cc1ccc(S(=O)(=O)NC2Cc3ccc(-c4cc5ccccc5n4C(=O)OC(C)(C)C)cc3C2)cc1 (stereo not drawn) |
| 730 nM | CC(C)(C)OC(=O)n1c(-c2ccc3c(c2)CC(NS(=O)(=O)c2ccc(C(F)(F)F)cc2)C3)cc2ccccc21 (stereo not drawn) |
| 1330 nM | Cc1cccc(S(=O)(=O)NC2Cc3ccc(-c4cc5ccccc5n4C(=O)OC(C)(C)C)cc3C2)c1 (stereo not drawn) |
| 960 nM | COc1cccc(S(=O)(=O)NC2Cc3ccc(-c4cc5ccccc5n4C(=O)OC(C)(C)C)cc3C2)c1 (stereo not drawn) |
| 460 nM | CC(C)(C)OC(=O)n1c(-c2ccc3c(c2)CC(NS(=O)(=O)c2cccc(C#N)c2)C3)cc2ccccc21 (stereo not drawn) |
| 600 nM | COC(=O)c1ccccc1S(=O)(=O)NC1Cc2ccc(-c3cc4ccccc4n3C(=O)OC(C)(C)C)cc2C1 (stereo not drawn) |
| 3350 nM | CC(C)(C)OC(=O)n1c(-c2ccc3c(c2)CC(NS(=O)(=O)c2ccccc2C(=O)O)C3)cc2ccccc21 (stereo not drawn) |
| > 30000 nM | CC(C)(C)OC(=O)n1c(-c2ccc3c(c2)CC(NS(=O)(=O)c2ccccc2)C3)cc2cc(OCc3ccccc3)ccc21 (stereo not drawn) |
| 600 nM | COc1ccccc1S(=O)(=O)NC1Cc2ccc(-c3cc4ccccc4n3C(=O)OC(C)(C)C)cc2C1 (stereo not drawn) |
| 800 nM | CC(C)(C)OC(=O)n1c(-c2ccc3c(c2)CC(NS(=O)(=O)c2ccccc2C(F)(F)F)C3)cc2ccccc21 (stereo not drawn) |
| 760 nM | CC(C)(C)OC(=O)n1c(-c2ccc3c(c2)CC(NS(=O)(=O)c2ccccc2Cl)C3)cc2ccccc21 (stereo not drawn) |
| 190 nM | CC(C)(C)OC(=O)n1c(-c2ccc3c(c2)CC(NC(=O)c2ccccc2)C3)cc2ccccc21 (stereo not drawn) |
| 470 nM | COc1ccccc1C(=O)NC1Cc2ccc(-c3cc4ccccc4n3C(=O)OC(C)(C)C)cc2C1 (stereo not drawn) |
| 530 nM | CC(C)(C)OC(=O)n1c(-c2ccc3c(c2)CC(NC(=O)c2ccccc2O)C3)cc2ccccc21 (stereo not drawn) |
| 520 nM | CC(C)(C)OC(=O)n1c(-c2ccc3c(c2)CC(NS(=O)(=O)Cc2ccccc2)C3)cc2ccccc21 (stereo not drawn) |
| 1500 nM | CC(C)(C)OC(=O)n1c(-c2ccc3c(c2)CC(NC(=O)Nc2ccccc2)C3)cc2ccccc21 (stereo not drawn) |
| 400 nM | CCS(=O)(=O)NC1Cc2ccc(-c3cc4ccccc4n3C(=O)OC(C)(C)C)cc2C1 (stereo not drawn) |
| 1400 nM | CC(C)(C)COC(=O)n1c(-c2ccc3c(c2)CC(NS(=O)(=O)c2ccccc2)C3)cc2ccccc21 (stereo not drawn) |
| 60 nM | CC(C)(C)OC(=O)n1c(-c2ccc3c(c2)CC(NS(=O)(=O)c2ccccc2C#N)C3)cc2ccccc21 (stereo not drawn) |

| EC50 | SMILES |
| --- | --- |
| 100 nM | CC(C)(C)OC(=O)n1c(-c2ccc3c(c2)CC(NS(=O)(=O)c2ccccc2F)C3)cc2ccccc21 (stereo not drawn) |
| 1160 nM | O=C(CC1CC1)n1c(-c2ccc3c(c2)CC(NS(=O)(=O)c2ccccc2)C3)cc2ccccc21 (stereo not drawn) |
| > 30000 nM | CC(C)(C)OC(=O)n1c(-c2ccc3c(c2)CC(NS(=O)(=O)c2ccccc2)C3)cc2c(OCc3ccccc3)cccc21 (stereo not drawn) |
| 170 nM | CC(C)(C)OC(=O)n1c(-c2ccc3c(c2)CC(NC(=O)c2ccccc2F)C3)cc2ccccc21 (stereo not drawn) |
| > 30000 nM | CC(C)(C)OC(=O)n1c(-c2ccc3c(c2)CC(NS(=O)(=O)c2ccccc2)C3)cc2c(O)cccc21 (stereo not drawn) |
| 26000 nM | CC(C)(C)OC(=O)n1c(-c2ccc3c(c2)CC(NS(=O)(=O)c2ccccc2)C3)cc2cc(C#N)ccc21 (stereo not drawn) |
| 1810 nM | CC(C)(C)OC(=O)n1c(-c2ccc3c(c2)CC(NS(=O)(=O)c2cccc(Cl)c2)C3)cc2ccccc21 (stereo not drawn) |
| 200 nM | Cc1ccccc1S(=O)(=O)NC1Cc2ccc(-c3cc4ccccc4n3C(=O)OC(C)(C)C)cc2C1 (stereo not drawn) |
| 2100 nM | CCCCCC(=O)n1c(-c2ccc3c(c2)CC(NS(=O)(=O)c2ccccc2)C3)cc2ccccc21 (stereo not drawn) |
| > 30000 nM | O=S(=O)(NC1Cc2ccc(-c3cc4ccccc4n3Cc3ccccc3)cc2C1)c1ccccc1 (stereo not drawn) |
| 300 nM | Cc1ccc2cc(-c3ccc4c(c3)CC(NS(=O)(=O)c3ccccc3)C4)n(C(=O)OC(C)(C)C)c2c1 (stereo not drawn) |
| > 30000 nM | COC(=O)n1c(-c2ccc3c(c2)CC(NS(=O)(=O)c2ccccc2)C3)cc2ccccc21 (stereo not drawn) |
| > 30000 nM | CC(C)(C)OC(=O)n1c(-c2ccc3c(c2)CC(NS(=O)(=O)c2ccccc2)C3)cc2ccc(OCc3ccccc3)cc21 (stereo not drawn) |
| 28000 nM | COc1ccc2c(c1)cc(-c1ccc3c(c1)CC(NS(=O)(=O)c1ccccc1)C3)n2C(=O)OC(C)(C)C (stereo not drawn) |
| 1600 nM | COc1ccc2cc(-c3ccc4c(c3)CC(NS(=O)(=O)c3ccccc3)C4)n(C(=O)OC(C)(C)C)c2c1 (stereo not drawn) |
| 650 nM | CCc1ccc(S(=O)(=O)NC2Cc3ccc(-c4cc5ccccc5n4C(=O)OC(C)(C)C)cc3C2)cc1 (stereo not drawn) |
| 130 nM | Cc1noc(C)c1S(=O)(=O)NC1Cc2ccc(-c3cc4ccccc4n3C(=O)OC(C)(C)C)cc2C1 (stereo not drawn) |
| > 30000 nM | COc1ccc(Cn2c(-c3ccc4c(c3)CC(NS(=O)(=O)c3ccccc3)C4)cc3ccccc32)cc1 (stereo not drawn) |
| 210 nM | CC(C)(C)OC(=O)n1c(-c2ccc3c(c2)CC(NS(C)(=O)=O)C3)cc2ccccc21 (stereo not drawn) |
